From patent US20250154169A1, “COMPOUNDS AND METHODS FOR MODULATING SPLICING” (REMIX THERAPEUTICS INC., priority 2021, published 2025)
pIC50: −log10 of the molar value. Where two headings read alike, the source gives them in different places.

Assays:
Type in all cases: cell-based, human
Target C mRNA = test: Splicing RT-qPCR gene panel, Target C canonical junction (CJ) mRNA; conditions: Homo sapiens, Tables 4A/4B, read-out: Target C (IC50, decrease in CJ mRNA, gene panel)
Summary of the method: (§1)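 Canonical-junction mRNA levels were quantified by RT-qPCR in lysates, using ΔΔCt against a housekeeping gene (GAPDH, GUSB or PPIA) and DMSO wells, expressed as percentage response. Cells (A673 or K562) had been exposed for 24 h at 37° C. to 11 three-fold compound concentrations up to 10 uM, DMSO ≤0.25%.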

HTT mRNA [1] = test: Splicing RT-qPCR assay, HTT canonical (CJ) and alternative (AJ) junction mRNA; conditions: Homo sapiens
Summary of the method: (§2)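 One-step RT-qPCR on cell lysates, CJ and AJ isoforms quantified; housekeeping normalization GAPDH/GUSB (K562) or PPIA (A673). Cells: A673 in DMEM/10% FBS or K562 in IMDM/10% FBS. Compounds 11-pt 3-fold, top 10 uM, 24 h, 37 °C, 5% CO2.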

HTT mRNA [2] = test: Splicing RT-qPCR gene panel, HTT canonical junction (CJ) mRNA; conditions: Homo sapiens, Tables 4A/4B, read-out: HTT (IC50, decrease in CJ mRNA, gene panel)
Summary of the method: as §1

MYB mRNA = test: Splicing RT-qPCR assay, MYB canonical (CJ) and alternative (AJ) junction mRNA; conditions: Homo sapiens
Summary of the method: as §2

SMN2 mRNA = test: Splicing RT-qPCR gene panel, SMN2 canonical junction (CJ) mRNA; conditions: Homo sapiens, Tables 4A/4B, read-out: SMN2 (IC50, decrease in CJ mRNA, gene panel)
Summary of the method: as §1

[3] = 24 h, A673 or K562 cells, 24 hours compound treatment, read-out: HTT CJ (IC50, decrease in canonical junction mRNA)
[4] = A673 or K562 cells, 24 hours compound treatment, read-out: HTT AJ (AC50, increase in alternative junction mRNA)
[5] = 24 h, A673 or K562 cells, 24 hours compound treatment, RT-qPCR, read-out: MYB AJ (AC50, increase in alternative junction mRNA)
[6] = 24 h, A673 or K562 cells, 24 hours compound treatment, RT-qPCR, read-out: MYB CJ (IC50, decrease in canonical junction mRNA)
[7] = Tables 4A/4B, canonical junction qPCR panel, read-out: MYB (IC50, decrease in CJ mRNA, gene panel)

Compound | pIC50 (Target C mRNA) | pIC50 (HTT mRNA [1]; [3]) | AC50 (HTT mRNA [1]; [4]) [nM] | pIC50 (HTT mRNA [2]) | AC50 (MYB mRNA; [5]) [nM] | pIC50 (MYB mRNA; [6]) | pIC50 (MYB mRNA; [7]) | pIC50 (SMN2 mRNA) | AC50 (HTT mRNA [1]; Table 3B, alternative junction mRNA, read-out: HTT AJ (AC50, increase in AJ mRNA)) [nM] | pIC50 (HTT mRNA [1]; Table 3B, canonical junction mRNA, read-out: HTT CJ (IC50, decrease in CJ mRNA)) | pIC50 (MYB mRNA; Table 3B, canonical junction mRNA, RT-qPCR, read-out: MYB CJ (IC50, decrease in CJ mRNA)) | AC50 (MYB mRNA; Table 3B, alternative junction mRNA, RT-qPCR, read-out: MYB AJ (AC50, increase in AJ mRNA)) [nM]
CCn1cc2c(N3C[C@@H](C)N[C@@H](C)C3)ccc(C(=O)Nc3cc(F)c4nc(C)cn4c3)c2n1 [Compound 377, 4-[(3R,5S)-3,5-dimethylpiperazin-1-yl]-2-ethyl-N-{8-fluoro-2-methylimidazo[1,2-a]pyridin-6-yl}indazole-7-carboxamide] | 5.00 to 6.00 | 5.00 to 6.00 | 1000 to 10000 | 5.00 to 6.00 | 100 to 1000 | 6.00 to 7.00 | > 7.00 | > 7.00 |  |  |  | 
CCn1cc2c(N3CC[C@H](NC4CC4)C3)ccc(C(=O)Nc3cc(F)c4nc(C)cn4c3)c2n1 [Compound 410, (S)-4-(3-(cyclopropylamino)pyrrolidin-1-yl)-2-ethyl-N-(8-fluoro-2-methylimidazo[1,2-a]pyridin-6-yl)-2H-indazole-7-carboxamide] | < 5.00 | < 5.00 | > 10000 | < 5.00 | 1000 to 10000 | 6.00 to 7.00 | 6.00 to 7.00 | > 7.00 |  |  |  | 
Cc1cn2cc(NC(=O)c3ccc(N4CCNCC4)c4cn(Cc5cn[nH]c5)nc34)cc(F)c2n1 [Compound 341, N-{8-fluoro-2-methylimidazo[1,2-a]pyridin-6-yl}-4-(piperazin-1-yl)-2-(1H-pyrazol-4-ylmethyl)indazole-7-carboxamide] | < 5.00 | < 5.00 | > 10000 | < 5.00 | 1000 to 10000 | 5.00 to 6.00 | 5.00 to 6.00 | 6.00 to 7.00 |  |  |  | 
Cc1nc2c(F)cc(NC(=O)c3ccc(N4CCNCC4)c4cn(C)nc34)cc2n1C [Compound 332, N-(7-fluoro-2,3-dimethyl-1,3-benzodiazol-5-yl)-2-methyl-4-(piperazin-1-yl) indazole-7-carboxamide; trifluoroacetic acid] | < 5.00 | < 5.00 | > 10000 | < 5.00 | > 10000 | < 5.00 | < 5.00 | < 5.00 |  |  |  | 
Cc1cn2cc(NC(=O)c3ccc(N4CC(C)(C)NC(C)(C)C4)c4cn(C)nc34)cc(F)c2n1 [Compound 274] | < 5.00 | 5.00 to 6.00 | > 10000 | 5.00 to 6.00 | 100 to 1000 | 6.00 to 7.00 | 6.00 to 7.00 | > 7.00 |  |  |  | 
CCn1cc2c(N3CCN[C@H](CO)C3)ccc(C(=O)Nc3cc(F)c4nc(C)cn4c3)c2n1 [Compound 430, (S)-2-ethyl-N-(8-fluoro-2-methylimidazo[1,2-a]pyridin-6-yl)-4-(3-(hydroxymethyl)piperazin-1-yl)-2H-indazole-7-carboxamide] | < 5.00 | 5.00 to 6.00 | 1000 to 10000 | 5.00 to 6.00 | < 100 | > 7.00 | > 7.00 | > 7.00 |  |  |  | 
Cc1cc2nc(NC(=O)c3ccc(N4CCNCC4)c4cn(C)nc34)cc(C)n2n1 [Compound 421, N-{2,7-dimethylpyrazolo[1,5-a]pyrimidin-5-yl}-2-methyl-4-(piperazin-1-yl) indazole-7-carboxamide] | < 5.00 | < 5.00 | > 10000 | < 5.00 | > 10000 | < 5.00 | < 5.00 | < 5.00 |  |  |  | 
Cc1cn2cc(NC(=O)c3ccc(N4CCNCC4)c4cn(CC(C)(F)F)nc34)cc(F)c2n1 [Compound 364, 2-(2,2-difluoropropyl)-N-{8-fluoro-2-methylimidazo[1,2-a]pyridin-6-yl}-4-(piperazin-1-yl) indazole-7-carboxamide; trifluoroacetic acid] | < 5.00 | 5.00 to 6.00 | > 10000 | 5.00 to 6.00 | 100 to 1000 | 5.00 to 6.00 | 5.00 to 6.00 | > 7.00 |  |  |  | 
Cc1cn2cc(NC(=O)c3ccc(C4CCNCC4)c4c3OCC4)cc(F)c2n1 [Compound 188] | 5.00 to 6.00 | < 5.00 | > 10000 | < 5.00 | 1000 to 10000 | 5.00 to 6.00 | 5.00 to 6.00 | 6.00 to 7.00 |  |  |  | 
Cc1cn2cc(NC(=O)c3ccc(N4CC[C@@H](NC5(CF)CC5)C4)c4cn(C)nc34)cc(F)c2n1 [Compound 461, N-{8-fluoro-2-methylimidazo[1,2-a]pyridin-6-yl}-4-[(3R)-3-{[1-(fluoromethyl)cyclopropyl]amino}pyrrolidin-1-yl]-2-methylindazole-7-carboxamide] | < 5.00 | 5.00 to 6.00 | > 10000 | 5.00 to 6.00 | 100 to 1000 | > 7.00 | > 7.00 | > 7.00 |  |  |  | 
Cc1cn2cc(NC(=O)c3ccc(N4CC5(N)CC4C5)c4cn(C)nc34)cc(F)c2n1 [Compound 383, 4-{4-amino-2-azabicyclo[2.1.1]hexan-2-yl}-N-{8-fluoro-2-methylimidazo[1,2-a]pyridin-6-yl}-2-methylindazole-7-carboxamide] | < 5.00 | < 5.00 | > 10000 | < 5.00 | 100 to 1000 | > 7.00 | > 7.00 | > 7.00 |  |  |  | 
CCn1cc2c(N3CCNCC3)cc(F)c(C(=O)Nc3cc(F)c4nc(C)cn4c3)c2n1 [Compound 474, 2-ethyl-6-fluoro-N-{8-fluoro-2-methylimidazo[1,2-a]pyridin-6-yl}-4-(piperazin-1-yl) indazole-7-carboxamide] | 5.00 to 6.00 | > 7.00 | 100 to 1000 | 6.00 to 7.00 | < 100 | > 7.00 | > 7.00 | > 7.00 |  |  |  | 
CC(=O)Cn1cc2c(N3CCNCC3)ccc(C(=O)Nc3cc(F)c4nc(C)cn4c3)c2n1 [Compound 339, N-{8-fluoro-2-methylimidazo[1,2-a]pyridin-6-yl}-2-(2-oxopropyl)-4-(piperazin-1-yl)indazole-7-carboxamide] | < 5.00 | < 5.00 | > 10000 | < 5.00 | 1000 to 10000 | 5.00 to 6.00 | 5.00 to 6.00 | 6.00 to 7.00 |  |  |  | 
Cn1cc2c(N3CCNCC3)ccc(C(=O)Nc3cn[nH]c3)c2n1 [Compound 270] | < 5.00 | < 5.00 | > 10000 | < 5.00 | > 10000 | < 5.00 | < 5.00 | < 5.00 |  |  |  | 
Cc1cn2cc(NC(=O)c3ccc(N4CC[C@H](N)C4)c4cn(C)nc34)cc(F)c2n1 [Compound 382, 4-[(3S)-3-aminopyrrolidin-1-yl]-N-{8-fluoro-2-methylimidazo[1,2-a]pyridin-6-yl}-2-methylindazole-7-carboxamide] | < 5.00 | 5.00 to 6.00 | 1000 to 10000 | 5.00 to 6.00 | < 100 | > 7.00 | > 7.00 | > 7.00 |  |  |  | 
CCNC1CCN(c2ccc(C(=O)Nc3cn4cc(C)nc4c(F)c3OC)c3nn(C)cc23)CC1 [Compound 459, 4-[4-(ethylamino)piperidin-1-yl]-N-{8-fluoro-7-methoxy-2-methylimidazo [1,2-a]pyridin-6-yl}-2-methylindazole-7-carboxamide] | 5.00 to 6.00 | 6.00 to 7.00 | 100 to 1000 | > 7.00 | < 100 | > 7.00 | > 7.00 | > 7.00 |  |  |  | 
CCNC1CCN(c2cc(F)c(C(=O)Nc3cc(F)c4nc(C)cn4c3)c3nn(C)cc23)CC1 [Compound 460] | 6.00 to 7.00 | > 7.00 | 100 to 1000 | 6.00 to 7.00 | < 100 | > 7.00 | > 7.00 | > 7.00 |  |  |  | 
Cc1cn2cc(NC(=O)c3ccc(N4C[C@@H](C)N[C@@H](C)C4)c4nsnc34)cc(F)c2n1 [Compound 978] | 5.00 to 6.00 |  |  | 6.00 to 7.00 |  |  | > 7.00 | > 7.00 | 100 to 1000 | 6.00 to 7.00 | > 7.00 | < 100
Cc1cn2cc(NC(=O)c3ccc(N4CCNCC4)c4cn(C5CCOC5)nc34)cc(F)c2n1 (centres unmarked) [Compound 356, N-{8-fluoro-2-methylimidazo[1,2-a]pyridin-6-yl}-2-(oxolan-3-yl)-4-(piperazin-1-yl)indazole-7-carboxamide] | < 5.00 | < 5.00 | > 10000 | < 5.00 | 100 to 1000 | 6.00 to 7.00 | 6.00 to 7.00 | > 7.00 |  |  |  | 
